Reference: PubChem BioAssay (NCI)
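Grown in 96-well plates, cells were treated for 48 hours with each compound at five concentrations. Insufficient inhibition: endpoint recorded as highest concentration tested. GI50 marks 50% less growth. TGI: concentration producing complete growth inhibition.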

Tests used:
Assay in all cases: inhibition of tumour cell growth, NCI panel, 48 h
[1] = system: HT29 colon
[2] = system: OVCAR-3 ovarian
[3] = system: U251 CNS
[4] = system: SK-OV-3 ovarian
[5] = system: NCI-H522 lung
[6] = system: TK-10 renal
[7] = system: SNB-75 CNS
[8] = system: KM12 colon
[9] = system: UACC-62 melanoma
[10] = system: K-562 leukemia

SMILES	GI50 [1]	TGI [1]	GI50 [2]	TGI [2]	GI50 [3]	TGI [3]	GI50 [4]	TGI [4]	GI50 [5]	TGI [5]	GI50 [6]	TGI [6]	GI50 [7]	TGI [7]	GI50 [8]	TGI [8]	GI50 [9]	TGI [9]	GI50 [10]	TGI [10]
CCc1ccc(C2=NN(c3ccc(S(C)(=O)=O)cc3)C(=O)CC2)cc1	0.411 µM	13.4 µM	0.385 µM	2.36 µM	1.83 µM	> 100 µM	2.34 µM	12.4 µM	0.339 µM	8.37 µM	8.31 µM	> 100 µM	1.31 µM	6.93 µM	0.817 µM	> 96.1 µM	0.603 µM	> 100 µM	0.488 µM	> 100 µM
O=C1C2C(C(=O)N1CC[Se][Se]CCN1C(=O)C3C(C1=O)[C@H]1C=C[C@@H]3C1)[C@H]1C=C[C@@H]2C1 (some centres undefined)	0.355 µM	12.7 µM	0.852 µM	2.94 µM	0.597 µM	3.04 µM	2.94 µM	6.57 µM	1.79 µM	4.44 µM	0.303 µM	0.994 µM	0.171 µM	0.488 µM	1.35 µM	10.2 µM	1.37 µM	3.24 µM	1.63 µM	> 38.5 µM
Cc1ccc(NC(=O)c2ccc(NC3=C(Cl)C(=O)N(Cc4ccccc4)C3=O)cc2)cc1Cl	6.81 µM	51.3 µM	3.6 µM	18.7 µM	3.97 µM	17.8 µM	22.7 µM	54.6 µM	3.73 µM	20.5 µM	17.4 µM	40.5 µM	23.9 µM	76.8 µM	31 µM	> 100 µM	15.5 µM	59.9 µM	2.23 µM	12 µM
Cc1n(Cc2ccc3ccccc3n2)cc[n+]1Cc1ccc2ccccc2c1	0.454 µM	9.61 µM	0.515 µM	5.1 µM	0.384 µM	12.2 µM	1.16 µM	5.03 µM	0.312 µM	1.58 µM	1.94 µM	7.96 µM	0.322 µM	3.39 µM	0.488 µM	3.8 µM	0.933 µM	3.61 µM	0.422 µM	12.9 µM
CC1(C)CC(O)CC(C)(C)N1.CC1(C)CC(O)CC(C)(C)N1.CC1(C)CC(O)CC(C)(C)N1.CC1(C)CC(O)CC(C)(C)N1.Cl.[Ti]	> 100 µM	> 100 µM	> 100 µM	> 100 µM	> 100 µM	> 100 µM	> 100 µM	> 100 µM	> 100 µM	> 100 µM	> 100 µM	> 100 µM	> 100 µM	> 100 µM	> 100 µM	> 100 µM	> 100 µM	> 100 µM	> 100 µM	> 100 µM
COc1cc(OC)c(/C=C/C(=O)c2c(N)cc(OC)cc2OC)c(OC)c1	3.3 µM	14.6 µM	0.28 µM	1.1 µM	0.504 µM	> 100 µM	0.767 µM	> 100 µM	0.234 µM	0.901 µM	6.64 µM	> 100 µM	0.338 µM	–	0.303 µM	47.9 µM	0.379 µM	> 100 µM	0.305 µM	> 100 µM
CCN(CC)CCS(=O)(=O)CCNc1ccnc2cc(Cl)ccc12	0.868 µM	2.29 µM	1.47 µM	15.3 µM	3.17 µM	13.9 µM	6.58 µM	70.2 µM	0.758 µM	2.11 µM	1.07 µM	4.3 µM	2.07 µM	> 29 µM	2.41 µM	> 24.3 µM	3.83 µM	29.6 µM	0.96 µM	> 49.8 µM
Cc1cc(OC(=O)c2c(C)cc(OC(=O)c3c(C)cc(O)cc3O)cc2O)cc(O)c1C(=O)O	–	> 100 µM	–	> 100 µM	–	> 100 µM	–	> 100 µM	–	> 100 µM	–	> 100 µM	–	> 100 µM	–	> 100 µM	–	> 100 µM	–	> 100 µM
CC1=C(C(=O)CC(=O)C(=O)Nc2ccccc2C)Sc2ccccc2N1	–	> 100 µM	–	> 100 µM	–	> 100 µM	–	> 100 µM	–	> 100 µM	–	> 100 µM	–	> 100 µM	–	> 100 µM	–	> 100 µM	–	> 100 µM
O=c1c2ccccc2n2cnc3ccc(NCCNCCO)c1c32	–	6.84 µM	–	9.82 µM	–	13.6 µM	–	19.6 µM	–	6.2 µM	–	15.7 µM	–	9.51 µM	–	5.72 µM	–	7.27 µM	–	> 51.1 µM
